Test results published in patent publication US20260232821A1, “ALBUMIN CONJUGATE, METHOD FOR PRODUCING SAME, AND COMPOSITION FOR TARGETING, DIAGNOSING, OR TREATING CANCER COMPRISING SAME” (KYTECBIO CO., LTD., priority 2023, published 2026).

System: not listed separately
Test: Evaluation of ROS production according to lysine concentration
Settings: 10 μM compound with about 1.0 mM monomeric lysine, PBS pH 7.4, light of about 530 nm
Protocol: • i) 1.0 mM lysine (hereinafter, Lys) was mixed in PBS buffer solution (pH 7.4) and irradiated with light of about 530 nm. The fluorescence generated over time was measured using a Scinco FS-2, and results thereof are shown in FIG. 7A. • ii) The result of mixing 10 μM boron-containing compound B3 instead of the 1.0 mM lysine (Lys) is shown in FIG. 7B, iii) the result of mixing 10 μM boron-containing compound B3 and 0.1 mM lysine (Lys) instead of the 1.0 mM lysine (Lys) is shown in FIG. 7C, and iv) the result of mixing 10 μM boron-containing compound B3 and 1.0 mM lysine (Lys) instead of the 1.0 mM lysine (Lys) is shown in FIG. 7D.

**Q.** Which “reactive oxygen species generated when mixed with lysine” value does the source give for `O=Cc1cc2ccccc2cc1NCc1ccccc1B(O)O` [B3] here?
**A.** Its value is “relatively large amount of reactive oxygen species is generated”.

Biological target: albumin (HSA) (Homo sapiens, UniProt P02768)
Test: Binding ability evaluation: dissociation constant from fluorescence change with increasing albumin
Settings: 100 nM boron-containing compound, 95 vol % PBS buffer and 5 vol % DMSO, stirred 2 hours, fluorescence at 530 nm
Protocol: 100 nM boron-containing compound B1 and albumin (HSA) were mixed in 95 vol % PBS buffer and 5 vol % dimethyl sulfoxide (DMSO) and stirred for 2 hours. The change in fluorescence intensity (F.I.) was measured while increasing the concentration of the albumin, and the dissociation constant (Kd) calculated based thereon is shown in FIG. 2.
For example, 0:1 represents the case where 100 nM albumin (HSA) was used without using a boron-containing compound, 1:0 represents the case where 100 nM boron-containing compound B1 was used and no albumin (HSA) was used, 1:2 represents the case where 100 nM boron-containing compound B1 and 200 nM albumin (HSA) were used, and 1:16 represents the case where 100 nM boron-containing compound B1 and 1600 nM albumin (HSA) were used.
The dissociation constants (Kd) of boron-containing compounds B2 to B5 were calculated in the same method as used to produce boron-containing compound B1.

albumin (HSA), sequence (P02768 25-609): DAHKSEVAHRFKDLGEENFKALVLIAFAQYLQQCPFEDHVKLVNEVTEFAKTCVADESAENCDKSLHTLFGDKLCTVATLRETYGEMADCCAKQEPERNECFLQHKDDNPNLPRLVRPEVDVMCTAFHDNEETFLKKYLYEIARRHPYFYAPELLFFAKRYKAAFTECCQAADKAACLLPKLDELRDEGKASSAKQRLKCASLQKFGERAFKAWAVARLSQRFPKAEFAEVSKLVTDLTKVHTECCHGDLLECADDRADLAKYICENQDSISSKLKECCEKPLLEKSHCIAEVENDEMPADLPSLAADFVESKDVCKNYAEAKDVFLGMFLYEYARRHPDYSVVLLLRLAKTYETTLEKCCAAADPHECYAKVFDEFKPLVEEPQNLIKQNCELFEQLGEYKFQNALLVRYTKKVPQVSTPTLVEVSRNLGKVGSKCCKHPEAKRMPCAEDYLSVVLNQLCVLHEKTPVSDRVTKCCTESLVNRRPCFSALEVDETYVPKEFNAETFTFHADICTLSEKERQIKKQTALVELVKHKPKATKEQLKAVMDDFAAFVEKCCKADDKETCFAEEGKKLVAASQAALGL

**Q.** Which Kd does the source give for `O=Cc1cc(Br)ccc1NCc1ccccc1B(O)O` [B2] here?
**A.** The Kd was 383 nM.

**Q.** Which Kd does the source give for `O=Cc1cc2ccccc2cc1NCc1ccccc1B(O)O` [B3] here?
**A.** Its Kd is 2480 nM.

**Q.** With `O=C(c1ccccc1)c1ccccc1NCc1ccccc1B(O)O` [B4] as the compound, how does the Kd read?
**A.** The Kd was 2220 nM.

**Q.** For `O=Cc1cc2c(cc1NCc1ccccc1B(O)O)OCO2` [B5], which Kd is on record?
**A.** The Kd was 571 nM.

**Q.** For `O=Cc1ccccc1NCc1ccccc1B(O)O` [B1], which Kd is on record?
**A.** Its Kd is 185 nM.
